The text below walks through data of US5049549A, “Rhodomycins with a modified carbohydrate unit” (Behringwerke Aktiengesellschaft, priority 1988, dated 1991).

The test system of one data set is L1210 leukemia cells. Nature of the data set: Cytotoxicity for L1210 leukemia cells (stem cell assay, SCA). It counts as cell-based. To be noted: Mus musculus. How it is done: The test was carried out in accordance with the methods described by Hamburger and Salmon, with the modifications described below.
Conditioned medium was replaced by McCoy 5A medium. As a consequence of the high cloning rate of the L1210 leukemia cells in soft agar, the number of tumor cells per plate was reduced to 5×10^2.
The cells were incubated with various concentrations of the test substance at 37° C. for 1 h. The cells were subsequently washed twice with McCoy 5A medium and subsequently plated out in a two-layer agar system as upper layer in accordance with the Hamburger and Salmon method.
Additional parallel experiments were carried out using a continuous incubation time, in which case various concentrations of the test substance were mixed with the upper agar layer before plating out of the cells.
The plates were incubated in an incubator with 5% CO2, 20% O2 and 95% relative humidity for 5-7 days. After this time, colonies with a diameter of 60 μm were counted using an invertoscope.
The results have been reported as the percentage of colonies in treated versus untreated groups. The coefficient of variation for repeat experiments was less than 15%.
The IC50 for continuous and one-hour incubation was determined from the dose-effect plot (Tab. 1).

A further data set has as its system patients. The following applies: cited from earlier work.
A further data set has as its system L1210 cells. The data set can be described thus: Proliferation test (MTT reduction), L1210. It counts as cell-based. How it is done:
(§1) L1210, A 549 or HT 29 in the exponential growth phase are incubated in a cell density of 5×10^3 cells/ml in RPMI 1640 medium in a 96-well microtest plate with various concentrations of the test substance at 37° C., 5% CO2 and 95% relative humidity for 72 h. Control experiments contain merely growth medium in place of test substance. Determinations in quadruplicate are made up for each test substance and for the control. After incubation for 65 h, 50 µl of an MTT solution (2.5 mg/ml in phosphate-buffered saline) are added. In the presence of live cells MTT is reduced to a dark-red insoluble formazan dyestuff. This reaction is complete after 7 h (L1210 cells) or after 24 h (A 549, HT 29 cells), and the supernatant medium is carefully aspirated off. The insoluble dyestuff is dissolved by addition of 100 µl of DMSO, and the extinction of the solution produced in this way is subsequently measured at a wavelength of 492 nm for each well in a 340 CC Multiscan Photometer from Flow.
(§2) The ratio of the extinctions with treated and untreated cells yields a dose-effect plot from which the concentration which just kills 50% of the cells (IC50) can be read off. The coefficient of variation for repeat tests is less than 15%.
On the technique in general: Tetrazolium assays rely on reduction of a dye to a coloured formazan, in cell work by metabolically active cells.

For a further data set, the system named is A 549 cells. Nature of the data set: Proliferation test (MTT reduction), A549. It counts as cell-based. How it is done:
as §1, §2

For another data set, the system named is HT 29 cells. Nature of the data set: Proliferation test (MTT reduction), HT29. It counts as cell-based. To be noted: Homo sapiens, read-out: IC50 MTT assay HT29. How it is done: as §1, §2
[1] abbreviates: L1210, 1 h, read-out: IC50 SCA 1 h.
The mark [2] stands for this setting: Mus musculus, L1210, 72 h; read-out: IC50 MTT assay L1210.
Where [3] appears, read: Homo sapiens, A549, 72 h; read-out: IC50 MTT assay A549.
Setting [4] is: L1210, 1 h incubation, read-out: IC50 SCA 1 h.

Values after ≈ are worked out from the molar mass of the structure shown. Where two headings read alike, the source gives them in different places.

Turning to `COc1cccc2c1C(=O)c1c(O)c3c(c(O)c1C2=O)C[C@@](O)(C(=O)CO)C[C@@H]3O[C@H]1C[C@H](N)[C@H](O)[C@H](C)O1` [Adriamycin, reference compound], the IC50 (as a rule, the concentration at which inhibition is half-maximal) in the data set on L1210 leukemia cells (setting [1]) was found to be 0.04 µg/mL (≈ 0.0736 µM); in the data set with L1210 leukemia cells (L1210, read-out: IC50 SCA cont.), 0.02 µg/mL (≈ 0.0368 µM). Further, the “side effects of the treatment” value in the data set with patients (clinical use, specialist literature) is “damage to the circulatory system and symptoms characteristic thereof”.
Regarding `CC[C@@]1(O)C[C@H](O[C@H]2C[C@H](O)[C@H](N)[C@H](C)O2)c2c(O)c3c(c(O)c2[C@H]1O)C(=O)c1cccc(OC)c1C3=O` [compound 8], the IC50 came to 0.043 µg/mL (≈ 0.0812 µM) in the data set on L1210 cells (setting [2]); 0.14 µg/mL (≈ 0.264 µM) in the data set on A 549 cells (setting [3]); 0.043 µg/mL (≈ 0.0812 µM) in the data set with HT 29 cells (HT-29, HT29, 72 h).
Take `CC[C@@]1(O)C[C@H](O[C@H]2C[C@H](N)[C@H](N)[C@H](C)O2)c2c(O)c3c(c(O)c2[C@H]1O)C(=O)c1cccc(OC)c1C3=O` [compound 10, 4-O-Methyl-7-O-(3',4'-diamino-2',3',4',6'-tetradeoxy-alpha-L-lyxohexopyranosyl)-β-rhodomycinone]: the IC50 in the data set on L1210 cells (setting [2]) stood at 0.039 µg/mL (≈ 0.0738 µM); in the data set with A 549 cells (setting [3]), 0.095 µg/mL (≈ 0.18 µM); in the data set on HT 29 cells (HT-29, HT29, 72 h), 0.033 µg/mL (≈ 0.0624 µM).
On to `CC[C@@]1(O)C[C@H](O[C@H]2C[C@H](N)[C@@H](NC(=O)C(F)(F)F)[C@H](C)O2)c2c(O)c3c(c(O)c2[C@H]1O)C(=O)c1cccc(O)c1C3=O` [compound 12, 7-O-(3'-Amino-2',3',4',6'-tetradeoxy-4'-trifluoroacetamido-alpha-L-arabinohexopyranosyl)-β-rhodomycinone], for which the IC50 with L1210 leukemia cells (setting [4]) worked out at 0.44 µg/mL (≈ 0.721 µM); in the data set on L1210 cells (setting [2]) it was 0.03 µg/mL (≈ 0.0491 µM); with A 549 cells (setting [3]) it was 0.027 µg/mL (≈ 0.0442 µM); in the data set on HT 29 cells (HT-29, HT29, 72 h), 0.022 µg/mL (≈ 0.036 µM).
The corresponding values for `CC[C@@]1(O)C[C@H](O[C@H]2C[C@H](N=[N+]=[N-])[C@H](NC(=O)C(F)(F)F)[C@H](C)O2)c2c(O)c3c(c(O)c2[C@H]1O)C(=O)c1cccc(O)c1C3=O` [compound 13, 7-O-(3'-Azido-2',3',4',6'-tetradeoxy-4'-trifluoroacetamido-alpha-L-lyxohexopyranosyl)-β-rhodomycinone] are 0.29 µg/mL (≈ 0.456 µM), 0.1 µg/mL (≈ 0.157 µM), 0.1 µg/mL (≈ 0.157 µM) and 0.2 µg/mL (≈ 0.314 µM).
On to `CC[C@@]1(O)C[C@H](O[C@H]2C[C@H](NC(=O)C(F)(F)F)[C@H](NC(=O)C(F)(F)F)[C@H](C)O2)c2c(O)c3c(c(O)c2[C@H]1O)C(=O)c1cccc(O)c1C3=O` [compound 15, 7-O-(3',4'-bis-(trifluoroacetamido)-2',3',4',6'-tetradeoxy-alpha-L-lyxohexopyranosyl)-β-rhodomycinone], for which the IC50 in the data set with L1210 leukemia cells (setting [4]) turned out to be 0.43 µg/mL (≈ 0.609 µM); in the data set on L1210 cells (setting [2]), 0.037 µg/mL (≈ 0.0524 µM); with A 549 cells (setting [3]), 0.059 µg/mL (≈ 0.0835 µM); with HT 29 cells (HT-29, HT29, 72 h), 0.1 µg/mL (≈ 0.142 µM).
On to `CC[C@@]1(O)C[C@H](O[C@H]2C[C@H](N)[C@H](N)[C@H](C)O2)c2c(O)c3c(c(O)c2[C@H]1O)C(=O)c1cccc(O)c1C3=O` [compound 16, 7-O-(3',4'-Diamino-2',3',4',6'-tetradeoxy-alpha-L-lyxohexo-pyranosyl)-β-rhodomycinone], for which the IC50 amounted to 0.069 µg/mL (≈ 0.134 µM) in the data set on L1210 leukemia cells (setting [4]); 0.01 µg/mL (≈ 0.0194 µM) with L1210 cells (setting [2]); 0.04 µg/mL (≈ 0.0777 µM) in the data set with A 549 cells (setting [3]); 0.069 µg/mL (≈ 0.134 µM) with HT 29 cells (HT-29, HT29, 72 h).
As to `CC[C@@]1(O)C[C@H](O[C@H]2C[C@H](NC(=O)C(F)(F)F)[C@@H](N=[N+]=[N-])[C@H](C)O2)c2c(O)c3c(c(O)c2[C@H]1O)C(=O)c1cccc(O)c1C3=O` [compound 17, 7-O-(4'-Azido-2',3',4',6'-tetradeoxy-3'-trifluoroacetamido-alpha-L-arabinohexopyranosyl)-β-rhodomycinone], the IC50 turned out to be 1.4 µg/mL (≈ 2.2 µM) with L1210 leukemia cells (setting [1]); 0.33 µg/mL (≈ 0.518 µM) in the data set on L1210 cells (Mus musculus, L1210, 72 h, read-out: IC50 MTT assay L1210); 0.52 µg/mL (≈ 0.817 µM) with A 549 cells (Homo sapiens, A549, 72 h, read-out: IC50 MTT assay A549); 0.34 µg/mL (≈ 0.534 µM) in the data set on HT 29 cells (HT-29, 72 h).
Regarding `COc1cccc2c1C(=O)c1c(O)c3c(c(O)c1C2=O)C[C@@](O)(C(C)=O)C[C@@H]3O[C@H]1C[C@H](N)[C@H](O)[C@H](C)O1` [daunorubicin], in the data set with patients (in vivo), the “side effects of the treatment” value was “damage to the circulatory system and symptoms characteristic thereof”.
